Tests used:
[1] = tested on: Cl^− transport, MDCK cells; assay: In vitro diuretic activity: Cl^− transport inhibition, Transwell chamber seeded with MDCK cells; type: cell-based, canine; conditions: Canis lupus familiaris; 100 μmol/L, MDCK cells in Transwell; mean ± SD of three replicates; negative = promotion; read-out: Transport Inhibition Rate (%) Cl^−
Outline: (§1)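 MDCK monolayers on Transwell inserts (resistance ≥300 Ω cm^2) exposed apically to compounds at 100 μmol/L for 24 h. Then 15 mg/mL NaCl added to upper chamber; Na^+ and Cl^− in lower fluid measured by kit OD at 0.5, 1, 2 and 3 h. Inhibition % = (ODblank − ODexperimental)/ODblank × 100, blank = normal saline.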

[2] = tested on: Na^+ transport, MDCK cells; assay: In vitro diuretic activity: Na^+ transport inhibition, Transwell chamber seeded with MDCK cells; type: cell-based, canine; conditions: Canis lupus familiaris, MDCK, 100 μmol/L, MDCK cells in Transwell; mean ± SD of three replicates; negative = promotion; read-out: Transport Inhibition Rate (%) Na^+
Outline: as §1

mice = tested on: mice; parameters: method as in PMID 32602352; conditions: cited from earlier work
MDCK cells = assay: MTT cytotoxicity assay on MDCK cells; type: cell-based, canine; conditions: Canis lupus familiaris, 100 μmol/L, 24 h, mean ± SD of three replicates, read-out: Growth Inhibition Rate (%)
Outline: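 MDCK cells at 10^4/well, grown 24 h, exposed 24 h to compound at 100 μmol/L (saline control; hydrochlorothiazide 100 μmol/L reference). MTT 4 h, DMSO solubilization, OD 490 nm; growth inhibition % = (ODblank − ODexperimental)/ODblank × 100.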

[3] = tested on: Ca^2+ transport, MDCK cells; assay: In vitro litholytic activity: Ca^2+ transport inhibition, Transwell chamber with MDCK cells; type: cell-based, canine; conditions: Canis lupus familiaris, 100 μmol/L, mean ± SD of three replicates, read-out: Transport Inhibition Rate (%) Ca^2+
[4] = tested on: C2O4^2− transport, MDCK cells; assay: In vitro litholytic activity: C2O4^2− transport inhibition, Transwell chamber with MDCK cells; type: cell-based, canine; conditions: Canis lupus familiaris; 100 μmol/L, MDCK cells in Transwell; mean ± SD of three replicates; read-out: Transport Inhibition Rate (%) C2O4^2−
Outline: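 MDCK monolayers in Transwell upper chamber, used once resistance ≥300 Ω cm^2, treated 24 h with compounds at 100 μmol/L or saline. CaC2O4 (30 mmol/L) then added above, PBS below; lower-chamber Ca^2+ and C2O4^2− measured by kit at 0.5, 1, 2, 3 h, inhibition rate from OD versus blank.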

Row | Compound | inhibition at 100 µM [1] [%] | inhibition at 100 µM [2] [%] | diuretic effect on mice (mice) | inhibition at 100 µM (MDCK cells) [%] | inhibition at 100 µM [3] [%] | inhibition at 100 µM [4] [%] | melting point [°C]
1 | COc1cc(C)c(C(=O)Oc2cc(C)c(C(=O)O)c(O)c2C)c(O)c1C [Compound 1, Barbatic acid] | 2.34 ± 1.2 | 12.3 ± 0.5 | had a diuretic effect on mice | < 0 | 8.8 ± 0.18 | 2.97 ± 2.21 | –
2 | C=CCOC(=O)c1c(C)cc(OC(=O)c2c(C)cc(OC(C)C)c(C)c2O)c(C)c1O [Compound 6z, allyl 2-hydroxy-4-(2-hydroxy-4-isopropoxy-3,6-dimethylbenzoyloxy)-3,6-dimethylbenzoate] | -32.6 ± 3.1 | -22.7 ± 1.05 | – | 2.47 ± 0.5 | -2.56 ± 0.17 | 0.23 ± 2.16 | 111 to 114
